These are literature values, as cited in patent US20220241055A1, “DENTAL IMPLANT WITH ANTIBACTERIAL/ ANTIMICROBIAL PROPERTY HAVING METAL-ORGANIC FRAMEWORK (MOF) STRUCTURE AND PRODUCTION METHOD THEREOF” (RECEP TAYYIP ERDOGAN UNIVERSITESI, priority 2019, published 2022).

The conditions of this data set: conditions similar to body medium (SBF, 37° C.), stored in metal-organic framework structures.

In the case of `CC(C)Cc1ccc(C(C)C(=O)O)cc1` (stereo not shown) [ibuprofen], the “duration of release of the stored drug” value is on record as 6 days.
